Source: patent US7407648B2, “Merocyanine derivatives for cosmetic use” (Ciba Specialty Chemicals Corp., priority 2002, dated 2008)

Test: UV absorption spectroscopic data (λmax, ε, E 1%/1 cm) of the merocyanine UV absorbers
Format: physicochemical
Parameters: λmax: unit not given beside the values
Settings: for λmax [nm]: Table MC1; for E (1%, 1 cm) / ε / λmax / λmax (sh): Table MC3; for ε: at λmax; for λmax (sh): shoulder

Question: With `COC(=O)C(C(=O)OC)=C1C=C(NC2CCCCC2NC2=CC(=C(C(=O)OC)C(=O)OC)CCC2)CCC1` (centres unmarked) [MC35] as the compound, how does the “λmax [nm]” value (in MeOH) read?
Answer: 374 (MeOH) nm

Question: For `CCCCCCN(C=CC=C(C(C)=O)S(=O)(=O)c1ccc(C)cc1)CC` [MC36], which “λmax [nm]” value (in MeOH) is on record?
Answer: 385 (MeOH) nm

Question: For `CCCCC(CC)COC(=O)/C(C#N)=C1/C=C(NCCNC2=C/C(=C(\C#N)C(=O)OCC(CC)CCCC)CC(C)(C)C2)CC(C)(C)C1` (centres unmarked) [MC01], which “λmax [nm]” value (in MeOH) is on record?
Answer: 362 (MeOH) nm

Question: With `CCOC(=O)C(C(=O)OCC)=C1C=C(N2CCN(C3=CC(=C(C(=O)OCC)C(=O)OCC)CC(C)(C)C3)CC2)CC(C)(C)C1` [MC08] as the compound, how does the “λmax [nm]” value (in MeOH) read?
Answer: 373 (MeOH) nm

Question: For `CN(C)/C=C/C=C1C(=O)OC(C)(C)OC1=O` [MC175], which “E (1%, 1 cm)” value is on record?
Answer: 3022

Question: And the ε?
Answer: 68000 L/mol/cm

Question: And the λmax (solvent not given)?
Answer: 383

Question: For `COc1cc(OC(=O)/C(C(C)=O)=C2/C=C(NCC(C)NC3=C/C(=C(\C(C)=O)C(=O)Oc4cc(OC)c(OC)c(OC)c4)CC(C)(C)C3)CC(C)(C)C2)cc(OC)c1OC` (centres unmarked) [MC22], which “λmax [nm]” value (in MeOH) is on record?
Answer: 395 (MeOH) nm

Question: Which “E (1%, 1 cm)” value does the source give for `COC(=O)C(=C/C=C/N(C)C)C(=O)OC` [MC177] here?
Answer: 2488

Question: And the ε?
Answer: 53000 L/mol/cm

Question: And the λmax (solvent not given)?
Answer: 373

Question: With `CCCCCCNC(=O)/C(=C1\C=C(NCCCNC2=C/C(=C(\C(=O)NCCCCCC)S(=O)(=O)c3ccccc3)CCC2)CCC1)S(=O)(=O)c1ccccc1` [MC16] as the compound, how does the “λmax [nm]” value (in MeOH) read?
Answer: 390 (MeOH) nm

Question: With `CC(=O)/C(C(=O)NCCNC(=O)/C(C(C)=O)=C1/C=C(N2CCCCC2)CCC1)=C1\C=C(N2CCCCC2)CCC1` [MC30] as the compound, how does the “λmax [nm]” value (in MeOH) read?
Answer: 385 (MeOH) nm

Question: For `CCOC(=O)/C(=C1\C=C(NCCNC2=C/C(=C(\C(=O)OCC)S(=O)(=O)c3ccccc3)CCC2)CCC1)S(=O)(=O)c1ccccc1` [MC05], which “λmax [nm]” value (in MeOH) is on record?
Answer: 362 (MeOH) nm

Question: With `CCCCC(CC)CNC(=O)/C(C#N)=C1/C=C(N2CCN(C3=C/C(=C(\C#N)C(=O)NCC(CC)CCCC)CC(C)(C)C3)C(C)C2)CC(C)(C)C1` (centres unmarked) [MC26] as the compound, how does the “λmax [nm]” value (in MeOH) read?
Answer: 374 (MeOH) nm

Question: Which “λmax [nm]” value (in MeOH) does the source give for `Cc1ccc(S(=O)(=O)/C(C#N)=C\C=C2\OCC(C)(C)N2C)cc1` [MC06] here?
Answer: 374 (MeOH) nm

Question: With `CC1(C)CC(NCCNC2=CC(=C(C#N)C#N)CC(C)(C)C2)=CC(=C(C#N)C#N)C1` [MC04] as the compound, how does the “λmax [nm]” value (in MeOH) read?
Answer: 361 (MeOH) nm

Question: Which “E (1%, 1 cm)” value does the source give for `CCCCC(CC)COC(=O)/C(C#N)=C/C=C/N1CCN(/C=C/C=C(\C#N)C(=O)OCC(CC)CCCC)CC1` (centres unmarked) [MC174] here?
Answer: 2650

Question: And the ε?
Answer: 146 379

Question: And the λmax (solvent not given)?
Answer: 398

Question: Which “λmax [nm]” value (in MeOH) does the source give for `CC(=O)/C(C(=O)Nc1ccc(NC(=O)/C(C(C)=O)=C2/C=C(N3CCCC3)CC(C)(C)C2)cc1)=C1\C=C(N2CCCC2)CC(C)(C)C1` [MC31] here?
Answer: 394 (MeOH) nm

Question: Which “λmax [nm]” value (in MeOH) does the source give for `CCCCC(CC)COC(=O)/C(=C1\C=C(NCCCNC2=C/C(=C(\C(=O)OCC(CC)CCCC)S(=O)(=O)c3ccccc3)CCC2)CCC1)S(=O)(=O)c1ccccc1` (centres unmarked) [MC17] here?
Answer: 385 (MeOH) nm

Question: With `CCOC(=O)C(C(=O)OCC)=C1C=C(NCC2(C)CC(NC3=CC(=C(C(=O)OCC)C(=O)OCC)CC(C)(C)C3)CC(C)(C)C2)CC(C)(C)C1` (centres unmarked) [MC25] as the compound, how does the “λmax [nm]” value (in MeOH) read?
Answer: 395 (MeOH) nm

Question: With `COC(=O)C(=C/C=C/N1CCCCC1)C(=O)OC` [MC179] as the compound, how does the “E (1%, 1 cm)” value read?
Answer: 1953

Question: What about the ε of the same compound?
Answer: 49500 L/mol/cm

Question: And the λmax (solvent not given)?
Answer: 377

Question: What does the source list for `CCCCN(/C=C/C=C(C(=O)OCC)C(=O)OCC)CCCC` [MC182]?
Answer: E (1%, 1 cm): 1423; ε: 60600 L/mol/cm; λmax (solvent not given): 377

Question: Which “E (1%, 1 cm)” value does the source give for `CCCCC(CC)COC(=O)/C(C#N)=C\C=C\N(CC)CCCCN(/C=C/C=C(/C#N)C(=O)OCC(CC)CCCC)CC` (centres unmarked) [MC183] here?
Answer: 2570

Question: And the ε?
Answer: 111000 L/mol/cm

Question: And the “λmax (sh)” value (solvent not given)?
Answer: 370

Question: What about the λmax (solvent not given) of the same compound?
Answer: 386

Question: With `CC(=O)/C(C(=O)OCC(C)C)=C1/C=C(NCC(C)(CNC2=C/C(=C(\C(C)=O)C(=O)OCC(C)C)CC(C)(C)C2)CNC2=C/C(=C(\C(C)=O)C(=O)OCC(C)C)CC(C)(C)C2)CC(C)(C)C1` [MC27] as the compound, how does the “λmax [nm]” value (in MeOH) read?
Answer: 385 (MeOH) nm

Question: With `CCOC(=O)C(C(=O)OCC)=C1C=C(NC2CCCCC2NC2=CC(=C(C(=O)OCC)C(=O)OCC)CC(C)(C)C2)CC(C)(C)C1` (centres unmarked) [MC10] as the compound, how does the “λmax [nm]” value (in MeOH) read?
Answer: 362 (MeOH) nm

Question: Which λmax (acetonitrile) does the source give for `CCCCC(CC)COC(=O)/C(C#N)=C1\C=C(N2CCOCC2)CC(C)(C)C1` (centres unmarked) [MC184] here?
Answer: 399

Question: With `COC(=O)C(=C/C=C/N1CCOCC1)C(=O)OC` [MC178] as the compound, how does the “E (1%, 1 cm)” value read?
Answer: 1476

Question: And the ε?
Answer: 37700 L/mol/cm

Question: What about the λmax (solvent not given) of the same compound?
Answer: 373

Question: For `CCOC(=O)/C(C#N)=C1\C=C(NCCCCCCNC2=C/C(=C(/C#N)C(=O)OCC)CCC2)CCC1` [MC18], which “λmax [nm]” value (in MeOH) is on record?
Answer: 384 (MeOH) nm

Question: Which “E (1%, 1 cm)” value does the source give for `COC(=O)C(=C/C=C/N(C(C)C)C(C)C)C(=O)OC` [MC180] here?
Answer: 2111

Question: And the ε?
Answer: 56800 L/mol/cm

Question: And the λmax (solvent not given)?
Answer: 378

Question: Which “λmax [nm]” value (in MeOH) does the source give for `CCOC(=O)C(C(=O)OCC)=C1C=C(NCc2ccc(CNC3=CC(=C(C(=O)OCC)C(=O)OCC)CCC3)cc2)CCC1` [MC14] here?
Answer: 392 (MeOH) nm

Question: With `CC1(C)CC(NC2CCCCC2NC2=CC(=C(C#N)C#N)CC(C)(C)C2)=CC(=C(C#N)C#N)C1` (centres unmarked) [MC34] as the compound, how does the “λmax [nm]” value (in MeOH) read?
Answer: 383 (MeOH) nm

Question: With `CCOC(=O)/C(=C1\C=C(NC(C)CC)CCC1)C(OC)(C(=O)OCC)/C(C(=O)OCC)=C1/C=C(NC(C)CC)CCC1` (centres unmarked) [MC33] as the compound, how does the “λmax [nm]” value (in MeOH) read?
Answer: 375 (MeOH) nm

Question: Which “λmax [nm]” value (in MeOH) does the source give for `CN(CCCNC1=CC(=C2C(=O)CC(C)(C)CC2=O)CCC1)CCCNC1=CC(=C2C(=O)CC(C)(C)CC2=O)CCC1` [MC12] here?
Answer: 392 (MeOH) nm

Question: With `CCCCC(CC)COC(=O)/C(C#N)=C\C=C\N(CC)CCCN(/C=C/C=C(/C#N)C(=O)OCC(CC)CCCC)CC` (centres unmarked) [MC173] as the compound, how does the “E (1%, 1 cm)” value read?
Answer: 1545

Question: And the ε?
Answer: 92000 L/mol/cm

Question: And the λmax (solvent not given)?
Answer: 390

Question: Which “λmax [nm]” value (in MeOH) does the source give for `CCOC(=O)/C(C#N)=C1\C=C(NC2CC(C)(C)CC(C)(CNC3=C/C(=C(\C#N)C(=O)OCC)CC(C)(C)C3)C2)CC(C)(C)C1` (centres unmarked) [MC24] here?
Answer: 388 (MeOH) nm

Question: Which “E (1%, 1 cm)” value does the source give for `CCOC(=O)C(=C/C=C/N1CCOCC1)C(=O)OCC` [MC181] here?
Answer: 1684

Question: And the ε?
Answer: 47700 L/mol/cm

Question: And the λmax (solvent not given)?
Answer: 371

Question: For `CCOC(=O)C(C(=O)OCC)=C1C=C(N2CCOCC2)CC(C)(C)C1` [MC186], which λmax (acetonitrile) is on record?
Answer: 376

Question: Which “λmax [nm]” value (in MeOH) does the source give for `CCOC(=O)/C(C#N)=C1\C=C(NC2CCCCC2NC2=C/C(=C(/C#N)C(=O)OCC)CC(C)(C)C2)CC(C)(C)C1` (centres unmarked) [MC09] here?
Answer: 370 (MeOH) nm

Question: For `COCCOC(=O)/C(C(C)=O)=C1/C=C(NCCC(C)(C)CC(C)CNC2=C/C(=C(\C(C)=O)C(=O)OCCOC)CC(C)C2)CC(C)C1` (centres unmarked) [MC29], which “λmax [nm]” value (in MeOH) is on record?
Answer: 383 (MeOH) nm

Question: Which “λmax [nm]” value (in MeOH) does the source give for `CCOC(=O)C(C(=O)OCC)=C1C=C(NCCCCCCNC2=CC(=C(C(=O)OCC)C(=O)OCC)CCC2)CCC1` [MC19] here?
Answer: 373 (MeOH) nm

Question: With `CCOC(=O)C(C(=O)OCC)=C1C=C(NCCNC2=CC(=C(C(=O)OCC)C(=O)OCC)CC(C)(C)C2)CC(C)(C)C1` [MC03] as the compound, how does the “λmax [nm]” value (in MeOH) read?
Answer: 372 (MeOH) nm

Question: With `CCOC(=O)/C(C#N)=C1\C=C(NCCN(CCNC2=C/C(=C(/C#N)C(=O)OCC)CC(C)(C)C2)CCNC2=C/C(=C(\C#N)C(=O)OCC)CC(C)(C)C2)CC(C)(C)C1` [MC11] as the compound, how does the “λmax [nm]” value (in MeOH) read?
Answer: 375 (MeOH) nm

Question: Which λmax (acetonitrile) does the source give for `CCCCC(CC)COC(=O)/C(C#N)=C1\C=C(NC(C)CC)CC(C)(C)C1` (centres unmarked) [MC185] here?
Answer: 388

Question: And the “λmax (sh)” value (acetonitrile)?
Answer: 368

Question: With `CCCCC(CC)COC(=O)C(C#N)=CC=CN(CC)CC` (centres unmarked) [MC39] as the compound, how does the “λmax [nm]” value (in EtOH) read?
Answer: 380 (EtOH) nm

Question: What about the “E (1%, 1 cm)” value of the same compound?
Answer: 2037

Question: And the ε?
Answer: 62400 L/mol/cm

Question: What about the λmax (solvent not given) of the same compound?
Answer: 380

Question: For `CCCCCCCCOC(=O)/C(=C\C=C\N(CC)CC)S(=O)(=O)c1ccccc1` [MC172], which “E (1%, 1 cm)” value is on record?
Answer: 1724

Question: And the ε?
Answer: 72700 L/mol/cm

Question: And the λmax (solvent not given)?
Answer: 371

Question: For `CCCCC(CC)(CCCNC1=C/C(=C(/C(=O)OCC)C(=O)c2ccc(OC)cc2)CCC1)CNC1=C/C(=C(/C(=O)OCC)C(=O)c2ccc(OCC)cc2)CCC1` (centres unmarked) [MC28], which “λmax [nm]” value (in MeOH) is on record?
Answer: 373 (MeOH) nm

Question: Which “λmax [nm]” value (in MeOH) does the source give for `CC1(C)CC(NCCCOCCOCCNC2=CC(=C3C(=O)OC(C)(C)OC3=O)CC(C)(C)C2)=CC(=C2C(=O)OC(C)(C)OC2=O)C1` [MC13] here?
Answer: 380 (MeOH) nm
